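Briefly, cells in 96-well plates were exposed to five compound concentrations for 48 h, and endpoints were estimated by linear interpolation. GI50 is the concentration that inhibits growth by half. Definition used: TGI = concentration required for complete inhibition of growth.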
Key:
Assay in all cases: NCI tumour cell line growth inhibition, 48 h
SK-MEL-5 melanoma = test system: SK-MEL-5 melanoma
T-47D breast = test system: T-47D breast
M14 melanoma = test system: M14 melanoma
SK-MEL-2 melanoma = test system: SK-MEL-2 melanoma
CAKI-1 renal = test system: CAKI-1 renal
SN12C renal = test system: SN12C renal
OVCAR-5 ovarian = test system: OVCAR-5 ovarian
NCI-H522 lung = test system: NCI-H522 lung
MCF7 breast = test system: MCF7 breast
U251 CNS = test system: U251 CNS
HCC-2998 colon = test system: HCC-2998 colon
SF-268 CNS = test system: SF-268 CNS
SF-539 CNS = test system: SF-539 CNS
HT29 colon = test system: HT29 colon
SW-620 colon = test system: SW-620 colon
SK-MEL-28 melanoma = test system: SK-MEL-28 melanoma
NCI-H23 lung = test system: NCI-H23 lung
A549 NSCLC = test system: A549 NSCLC
K-562 leukemia = test system: K-562 leukemia
OVCAR-4 ovarian = test system: OVCAR-4 ovarian
HCT-116 colon = test system: HCT-116 colon
DU-145 prostate = test system: DU-145 prostate
TK-10 renal = test system: TK-10 renal
HOP-62 NSCLC = test system: HOP-62 NSCLC
MDA-MB-231 breast = test system: MDA-MB-231 breast
LOX IMVI melanoma = test system: LOX IMVI melanoma
UACC-257 melanoma = test system: UACC-257 melanoma
COLO 205 colon = test system: COLO 205 colon
OVCAR-8 ovarian = test system: OVCAR-8 ovarian
NCI-H460 lung = test system: NCI-H460 lung
MOLT-4 leukemia = test system: MOLT-4 leukemia
BT-549 breast = test system: BT-549 breast
UACC-62 melanoma = test system: UACC-62 melanoma
SNB-19 CNS = test system: SNB-19 CNS
PC-3 prostate = test system: PC-3 prostate
RPMI-8226 leukemia = test system: RPMI-8226 leukemia
NCI-H226 lung = test system: NCI-H226 lung
ACHN renal = test system: ACHN renal
NCI/ADR-RES ovarian = test system: NCI/ADR-RES ovarian
SK-OV-3 ovarian = test system: SK-OV-3 ovarian
HCT-15 colon = test system: HCT-15 colon
IGROV1 ovarian = test system: IGROV1 ovarian
RXF 393 renal = test system: RXF 393 renal
SNB-75 CNS = test system: SNB-75 CNS
HS 578T breast = test system: HS 578T breast
SF-295 CNS = test system: SF-295 CNS
SR leukemia = test system: SR leukemia
CCRF-CEM leukemia = test system: CCRF-CEM leukemia
OVCAR-3 ovarian = test system: OVCAR-3 ovarian
KM12 colon = test system: KM12 colon
MDA-MB-435 = test system: MDA-MB-435
A498 renal = test system: A498 renal
MALME-3M melanoma = test system: MALME-3M melanoma
EKVX NSCLC = test system: EKVX NSCLC
786-0 renal = test system: 786-0 renal
UO-31 renal = test system: UO-31 renal
HL-60(TB) leukemia = test system: HL-60(TB) leukemia

`Nc1ncc(-c2ccc3ncnc(N4CCc5ccc(Cl)cc54)c3c2)cn1` was tested, and the GI50 (SK-MEL-5 melanoma) was 1460 nM, the TGI (SK-MEL-5 melanoma) was 4.94 µM and the GI50 (T-47D breast) was 313 nM. It also gave a TGI (T-47D breast) of 30 µM, a GI50 (M14 melanoma) of 1880 nM and a TGI (M14 melanoma) of over 100 µM. It also gave a GI50 (SK-MEL-2 melanoma) of 1560 nM, a TGI (SK-MEL-2 melanoma) of 4.53 µM and a GI50 (CAKI-1 renal) of 1190 nM. It also gave a TGI (CAKI-1 renal) of over 100 µM, a GI50 (SN12C renal) of 813 nM and a TGI (SN12C renal) of over 100 µM. The GI50 (OVCAR-5 ovarian) was 532 nM, the TGI (OVCAR-5 ovarian) was over 100 µM and the GI50 (NCI-H522 lung) was 2660 nM. It also gave a TGI (NCI-H522 lung) of 15.8 µM, a GI50 (MCF7 breast) of 684 nM and a TGI (MCF7 breast) of 31.7 µM. It also gave a GI50 (U251 CNS) of 2460 nM, a TGI (U251 CNS) of over 100 µM and a GI50 (HCC-2998 colon) of 1500 nM. For the same compound, the TGI (HCC-2998 colon) was 87.2 µM, the GI50 (SF-268 CNS) was 1630 nM and the TGI (SF-268 CNS) was over 100 µM. It also gave a GI50 (SF-539 CNS) of 1110 nM, a TGI (SF-539 CNS) of 3.79 µM and a GI50 (HT29 colon) of 1060 nM. The TGI (HT29 colon) was 82.6 µM, the GI50 (SW-620 colon) was 2830 nM and the TGI (SW-620 colon) was over 100 µM. For the same compound, the GI50 (SK-MEL-28 melanoma) was 2010 nM, the TGI (SK-MEL-28 melanoma) was over 100 µM and the GI50 (NCI-H23 lung) was 1900 nM. For the same compound, the TGI (NCI-H23 lung) was over 100 µM, the GI50 (A549 NSCLC) was 1260 nM and the TGI (A549 NSCLC) was over 100 µM. It also gave a GI50 (K-562 leukemia) of 2220 nM, a TGI (K-562 leukemia) of over 100 µM and a GI50 (OVCAR-4 ovarian) of 1610 nM. The TGI (OVCAR-4 ovarian) was 24.8 µM, the GI50 (HCT-116 colon) was 1680 nM and the TGI (HCT-116 colon) was 10.8 µM. For the same compound, the GI50 (DU-145 prostate) was 971 nM, the TGI (DU-145 prostate) was over 100 µM and the GI50 (TK-10 renal) was 354 nM. The TGI (TK-10 renal) was 3.85 µM, the GI50 (HOP-62 NSCLC) was 743 nM and the TGI (HOP-62 NSCLC) was over 100 µM. The GI50 (MDA-MB-231 breast) was 994 nM, the TGI (MDA-MB-231 breast) was over 100 µM and the GI50 (LOX IMVI melanoma) was 870 nM. The TGI (LOX IMVI melanoma) was 23.5 µM, the GI50 (UACC-257 melanoma) was 2980 nM and the TGI (UACC-257 melanoma) was over 100 µM. It also gave a GI50 (COLO 205 colon) of 2010 nM, a TGI (COLO 205 colon) of 9.53 µM and a GI50 (OVCAR-8 ovarian) of 1840 nM. For the same compound, the TGI (OVCAR-8 ovarian) was over 100 µM, the GI50 (NCI-H460 lung) was 1460 nM and the TGI (NCI-H460 lung) was over 100 µM. For the same compound, the GI50 (MOLT-4 leukemia) was 563 nM, the TGI (MOLT-4 leukemia) was 3.81 µM and the GI50 (BT-549 breast) was 603 nM. It also gave a TGI (BT-549 breast) of 8.51 µM, a GI50 (UACC-62 melanoma) of 1310 nM and a TGI (UACC-62 melanoma) of 5.98 µM. The GI50 (SNB-19 CNS) was 2550 nM, the TGI (SNB-19 CNS) was over 100 µM and the GI50 (PC-3 prostate) was 739 nM. It also gave a TGI (PC-3 prostate) of over 100 µM, a GI50 (RPMI-8226 leukemia) of 584 nM and a TGI (RPMI-8226 leukemia) of 4.44 µM. For the same compound, the GI50 (NCI-H226 lung) was 1350 nM, the TGI (NCI-H226 lung) was 27.4 µM and the GI50 (ACHN renal) was 584 nM. For the same compound, the TGI (ACHN renal) was over 100 µM, the GI50 (NCI/ADR-RES ovarian) was 1860 nM and the TGI (NCI/ADR-RES ovarian) was over 100 µM. For the same compound, the GI50 (SK-OV-3 ovarian) was 1370 nM, the TGI (SK-OV-3 ovarian) was 7.03 µM and the GI50 (HCT-15 colon) was 1330 nM. It also gave a TGI (HCT-15 colon) of over 100 µM, a GI50 (IGROV1 ovarian) of 291 nM and a TGI (IGROV1 ovarian) of 2.34 µM. The GI50 (RXF 393 renal) was 606 nM, the TGI (RXF 393 renal) was 3000 nM and the GI50 (SNB-75 CNS) was 418 nM. The TGI (SNB-75 CNS) was 3.98 µM, the GI50 (HS 578T breast) was 437 nM and the TGI (HS 578T breast) was 4.39 µM. The GI50 (SF-295 CNS) was 1030 nM, the TGI (SF-295 CNS) was 6.89 µM and the GI50 (SR leukemia) was 1040 nM. For the same compound, the TGI (SR leukemia) was 18.1 µM, the GI50 (CCRF-CEM leukemia) was 1020 nM and the TGI (CCRF-CEM leukemia) was over 100 µM. It also gave a GI50 (OVCAR-3 ovarian) of 1880 nM, a TGI (OVCAR-3 ovarian) of over 100 µM and a GI50 (KM12 colon) of 2340 nM. It also gave a TGI (KM12 colon) of 97.6 µM, a GI50 (MDA-MB-435) of 2190 nM and a TGI (MDA-MB-435) of over 100 µM. The GI50 (A498 renal) was 248 nM and the TGI (A498 renal) was 800 nM.
For `O=C(CNC(=O)c1ccccc1)Oc1c(Cl)c(Cl)c(Cl)c(Cl)c1Cl`, the TGI (T-47D breast) was over 100 µM, the TGI (MALME-3M melanoma) was 57.1 µM and the TGI (M14 melanoma) was over 100 µM. The TGI (SK-MEL-2 melanoma) was 94.1 µM, the TGI (CAKI-1 renal) was 54.9 µM and the TGI (SN12C renal) was over 100 µM. It also gave a TGI (OVCAR-5 ovarian) of over 100 µM, a TGI (NCI-H522 lung) of 83.8 µM and a TGI (MCF7 breast) of over 100 µM. The TGI (U251 CNS) was over 100 µM, the TGI (HCC-2998 colon) was 60.6 µM and the TGI (SF-268 CNS) was over 100 µM. The TGI (SF-539 CNS) was 95.1 µM, the TGI (HT29 colon) was over 100 µM and the TGI (SW-620 colon) was 67.1 µM. It also gave a TGI (EKVX NSCLC) of 48 µM, a TGI (SK-MEL-28 melanoma) of over 100 µM and a TGI (NCI-H23 lung) of over 100 µM. It also gave a TGI (A549 NSCLC) of over 100 µM, a TGI (K-562 leukemia) of over 100 µM and a TGI (OVCAR-4 ovarian) of over 100 µM. The TGI (786-0 renal) was over 100 µM, the TGI (HCT-116 colon) was over 100 µM and the TGI (DU-145 prostate) was 49.9 µM. It also gave a TGI (TK-10 renal) of 94.1 µM, a TGI (HOP-62 NSCLC) of over 100 µM and a TGI (MDA-MB-231 breast) of 66.1 µM. For the same compound, the TGI (LOX IMVI melanoma) was over 100 µM, the TGI (UACC-257 melanoma) was 54.9 µM and the TGI (COLO 205 colon) was over 100 µM. The TGI (OVCAR-8 ovarian) was 64 µM, the TGI (NCI-H460 lung) was over 100 µM and the TGI (MOLT-4 leukemia) was over 100 µM. For the same compound, the TGI (BT-549 breast) was 58.1 µM, the TGI (UACC-62 melanoma) was 53.8 µM and the TGI (SNB-19 CNS) was over 100 µM. It also gave a TGI (PC-3 prostate) of 61.4 µM, a TGI (RPMI-8226 leukemia) of 78.3 µM and a TGI (NCI-H226 lung) of 88.6 µM. The TGI (ACHN renal) was 65.1 µM, the TGI (NCI/ADR-RES ovarian) was 82.5 µM and the TGI (SK-OV-3 ovarian) was over 100 µM. For the same compound, the TGI (UO-31 renal) was 45.2 µM, the TGI (HCT-15 colon) was over 100 µM and the TGI (IGROV1 ovarian) was 63.5 µM. For the same compound, the TGI (RXF 393 renal) was over 100000 nM, the TGI (SNB-75 CNS) was over 100 µM and the TGI (HL-60(TB) leukemia) was 77.5 µM. It also gave a TGI (HS 578T breast) of 67.6 µM, a TGI (SF-295 CNS) of 79.9 µM and a TGI (SR leukemia) of over 100 µM. The TGI (CCRF-CEM leukemia) was over 100 µM, the TGI (OVCAR-3 ovarian) was 53.3 µM and the TGI (KM12 colon) was 45.6 µM. For the same compound, the TGI (MDA-MB-435) was 94.1 µM.

From PubChem BioAssay (NCI)
